In paper PMC11521183 (Emerging Infectious Diseases, 2024):

Tested on: reference seasonal A(H3N2) viruses A/Louisiana/50/2017 and A/Louisiana/49/2017
Assay: microbe, parasite or virus in culture
Assay type: cell-based, influenza A virus
Settings: read-out: Mean EC50 + SD

O=C1c2c(O)c(=O)ccn2N([C@@H]2c3ccccc3SCc3c2ccc(F)c3F)[C@@H]2COCCN12 [baloxavir, baloxavir acid]
EC50: 14.1 nM
